Experimental data published in patent US6548715B1, “Structural analogues of vitamin D” (Laboratoire Theramex S.A., priority 1993, dated 2003).

Tests used:
MG-63 cells = assay: MG-63 osteosarcoma cells, osteocalcin secretion; type: cell-based; settings: % of the activity of 1α,25-(OH)2D3 at 50% of its activity (B50); human osteosarcoma cells
Experimental: (§1) HL-60 cells were seeded at 1.2×10^5 cells/ml and 1α,25-(OH)2D3 or its anologs were added in ethanol (final concentration <0.2%) in RPMI 1640 medium supplemented with 10% heat-inactivated fetal calf serum (FCS) for 4 d at 37° C. Cells were then assayed for maturation by NBT reduction assay as described (22) using a hemacytometer, or for proliferation by cell counting and [^3H] thymidine incorporation. MG 63 cells, seeded at 5×10^3 cells/ml in 96 well flat bottomed culture plates (Falcon, Becton Dickinson, N.J.) in a volume of 0.2 ml of DMEM and 2% FCS, were incubated with 1α,25-(OH)2D3 or its analogues for 72 h. Osteocalcin was then measured in the culture medium using a homologous human osteocalcin RIA (39). Breast carcinoma cells (MCF-7 or GR) were grown in DMEM/nut.mix F-12 (HAM) medium supplemented with 10% FCS. Cells (5000/Well) were incubated during 24 h in 96 well tissue culture plates (Falcon 3072) followed by a 72 h incubation with/without 1α,25-(OH)2D3 or analogues. The cells were then incubated with [^3H]thymidine (1 μCi/well) for 4 h and harvested thereafter in NaOH (0.1 M) and the radioactivity counted. The protein content of the cells was measured by the Pierce BCA protein assay (Rockford, Ill.).

MCF-7 cells = assay: MCF-7 breast cancer cell proliferation ([3H]thymidine incorporation); type: cell-based; settings: % of the activity of 1α,25-(OH)2D3 at 50% of its activity (B50); human breast cancer cells
Experimental: as §1

HL-60 cells = assay: HL-60 cell differentiation (NBT reduction); type: cell-based; settings: % of the activity of 1α,25-(OH)2D3 at 50% of its activity (B50); human leukemia cells
Experimental: as §1

vitamin D receptor = biological target: T1, vitamin D receptor (Sus scrofa, UniProt A3RGC1); settings: % of the activity of 1α,25-(OH)2D3 at 50% of its activity (B50); 1α,25-(OH)2D3 assigned 100%
T1 sequence (A3RGC1 1-427): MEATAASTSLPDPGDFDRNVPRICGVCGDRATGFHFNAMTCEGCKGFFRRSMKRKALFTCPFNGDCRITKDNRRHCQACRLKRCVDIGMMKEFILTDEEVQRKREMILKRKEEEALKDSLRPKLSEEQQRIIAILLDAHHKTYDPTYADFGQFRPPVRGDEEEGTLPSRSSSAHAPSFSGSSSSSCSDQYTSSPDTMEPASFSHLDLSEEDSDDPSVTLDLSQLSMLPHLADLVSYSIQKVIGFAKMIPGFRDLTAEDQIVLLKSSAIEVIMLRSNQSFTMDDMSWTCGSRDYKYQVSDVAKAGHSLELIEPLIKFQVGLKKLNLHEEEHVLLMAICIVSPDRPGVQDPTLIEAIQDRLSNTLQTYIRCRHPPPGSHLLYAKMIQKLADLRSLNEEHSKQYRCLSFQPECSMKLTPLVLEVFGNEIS

[1] = tested on: vitamin D-deficient chicks; assay: Calcemic effect in vitamin D-deficient chicks (serum calcium); type: in vivo, chick; settings: % of the activity of 1α,25-(OH)2D3 at 50% of its activity (B50); vitamin D-deficient chicks injected 10 consecutive days
Experimental: The antirachitic activity of the analogues was tested in 3 weeks old vitamin D-deficient chicks injected for 10 consecutive days with 1α,25-(OH)2D3 or its analogues (22,23). Serum calcium (by atomic absorptiometry) and osteocalcin (by specific RIA), duodenal calbindin D-28K (by RIA) and bone calcium content were measured. The hypercalcemic effect of the most interesting anologues was also tested in vitamin D-replete normal NMRI mice by daily sc injection of 1α,25-(OH)2D3, its analogues or the solvent for 7 consecutive days, using serum, bone and urinary calcium excretion and serum osteocalcin (by specific mouse RIA) as parameters (40).

[2] = tested on: human normal keratinocytes; assay: Human keratinocyte proliferation ([3H]thymidine incorporation); type: cell-based; settings: % of the activity of 1α,25-(OH)2D3 at 50% of its activity (B50)
Experimental: to evaluate the effects on cell proliferation of non-malignant cells and especially to evaluate their potential for use for dermatological disorders, the new compounds were tested in cultures of human normal keratinocytes.
Human skin keratinocytes were isolated and cultured using a modification of the method of Kitano and Okada (38).
Briefly, the skin from biopsies of patients with breast tumors, was cutted into pieces measuring 3-5 mm and soaked overnight at 4° C. in a solution of dispase (20 Boehringer units/ml). The epidermis was peeled from the dermis, washed with calcium- and magnesium-free phosphate buffered saline and incubated and shaked in a 0.25% trypsin solution for 10 min at room temperature. The reaction was then stopped by addition of PBS containing 10% FCS. The cells were collected after centrifugation at 4° C. for 10 min at 800 rpm. After an additional washing with PBS, the pellet was suspended in culture medium into 25 cm^2 primaria flasks from Becton Dickinson. The keratinocytes were cultivated at 37° C. in an atmosphere of 5% CO2 in air. A few hours later, the medium was replaced by new one. The medium [Keratinocyte Medium from Gibco containing Epidermal Growth Factor (5 ng/ml), Bovine Pituitary Extract (35-50 μg/ml) and antibiotics] was renewed every other day until confluency.
Keratinocytes were cultured in 96-well plate and, after 24 hours, were treated with various concentrations of vitamin D analogues, followed by pulse labelling with 1 μCi of [^3H]thymidine for 3 hours. Cultures were washed 3 times with PBS and twice with 10% (v/v) ice cold trichloroacetic acid. Cells were solubilized with 1 M NaOH and radioactivity was counted in a scintillation counter.

[3] = biological target: T2, human DBP (vitamin D binding protein) (Homo sapiens, UniProt P02774); assay: Relative affinity for purified human vitamin D-binding protein (hDBP); settings: % of the activity of 1α,25-(OH)2D3 at 50% of its activity (B50)
T2 sequence (P02774 17-474): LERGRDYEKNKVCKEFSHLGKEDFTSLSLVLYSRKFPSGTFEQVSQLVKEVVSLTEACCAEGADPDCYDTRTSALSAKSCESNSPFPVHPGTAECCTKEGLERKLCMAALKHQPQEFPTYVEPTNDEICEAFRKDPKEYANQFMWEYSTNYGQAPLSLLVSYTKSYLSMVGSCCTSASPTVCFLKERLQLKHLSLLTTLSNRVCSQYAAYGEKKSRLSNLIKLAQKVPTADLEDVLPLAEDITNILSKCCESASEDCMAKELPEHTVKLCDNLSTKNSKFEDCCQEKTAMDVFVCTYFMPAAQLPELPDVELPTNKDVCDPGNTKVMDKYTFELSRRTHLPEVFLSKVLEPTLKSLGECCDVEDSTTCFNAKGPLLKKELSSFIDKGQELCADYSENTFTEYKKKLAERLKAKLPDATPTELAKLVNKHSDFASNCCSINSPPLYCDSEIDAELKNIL

[4] = tested on: spontaneously diabetic NOD mice; assay: Prevention of autoimmune disease recurrence after syngeneic islet transplantation in diabetic NOD mice; type: in vivo; settings: Nr 46 10 μg/kg/2d
Text: To evaluate the immune potential of the analogues the well known model of prevention of autoimmune disease recurrence in the spontaneously diabetic NOD mice was used. When syngeneic NOD islets are transplanted under the kidney capsule of spontaneously diabetic NOD mice, diabetes is only cured for some days, since in the absence of immunomodulatory treatment, the newly transplanted islets are destroyed within 14 days.

Row | Compound | Cell differentation/cell proliferation MG-63 (MG-63 cells) [%] | Cell differentation/cell proliferation MCF-7 (MCF-7 cells) [%] | Cell differentation/cell proliferation HL-60 (HL-60 cells) [%] | Affinity for pig receptor (vitamin D receptor) [%] | Ca serum chick [1] [%] | Cell differentation/cell proliferation keratinocytes [2] [%] | Affinity for human DBP [3] [%] | Mean survival of islets and range [4]
1 | C=C1C(=CC=CCC2(C)CCC(CCCC(C)(C)O)C2(C)C)CC(O)CC1O (stereo not drawn) [Compound 11] | 35 | 30 | 30 | 8 | <0.1 | 10 | 19 | –
2 | C=C1/C(=C\C=C2/CCC[C@](C)([C@H](C)[C@H](C)CC[C@@H](O)C(C)C)C2)C[C@@H](O)C[C@@H]1O [Compound 5] | 1000 | 6000 | 4000 | 80 | 9 | 5000 | 10 | –
3 | CC(CC#CC(C)(C)O)C1CCC2C(=CC=C3CC(O)CC(O)C3)CCCC21C (stereo not drawn) [Compound 44] | 150 | 1000 | 320 | 26 | 0.1 | 700 | 2 | –
4 | C=C1C(=CC=CCC2(C)CCC(CCCC(O)(CC)CC)C2(C)C)CC(O)CC1O (stereo not drawn) [Compound 12] | 135 | 80 | 250 | 45 | <0.1 | 100 | 5 | –
5 | C=C1/C(=C\C=C2/CCC[C@](C)([C@H](C)[C@H](C)CC[C@H](O)C(C)C)C2)C[C@@H](O)C[C@@H]1O [Compound 4] | 100 | 2000 | 500 | 60 | <1 | 2000 | 5 | –
6 | CCC(O)(C#CCC(C)C1CCC2C(=CC=C3CC(O)CC(O)C3)CCCC21C)CC (stereo not drawn) [Compound 48] | 800 | 1500 | 2200 | 40 | 1 | 350 | 0.3 | –
7 | CC(CCCC(C)(C)O)C1CCC2C(=CC=C3CC(O)CC(O)C3)CCCC21C (stereo not drawn) [Compound 43] | 100 | 20 | 40 | 25 | 0.1 | 100 | 7 | –
8 | CC(CC#CC(C)(C)O)C1CCC2C(=CC=C3CC(O)CC(O)C3)CCCC21C (stereo not drawn) [Compound 46] | 500 | 1950 | 1650 | 30 | 2 | 1000 | <0.5 | 19 (6-51) d
